Measurements: patent US8883798B2, “Pyrimidine compounds inhibiting the formation of nitric oxide and prostaglandin E2, method of production thereof and use thereof” (Ustav Organicke Chemie a Biochemie Akademie Ved CR, V.V.I., priority 2011, dated 2014)

Key:
peritoneal cells of mice = experiment: Cell viability of mouse peritoneal cells (WST-1 kit); format: cell-based; settings: Table 3B, substance 50 μmol·l^−1, 24 h
In short: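 C57BL/6 mouse peritoneal cells (1×10^6/mL) cultured 24 h with compounds at 50 μmol·l^−1. Viability read with WST-1 tetrazolium salt and expressed as percent of untreated control cells (100%).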

[1] = tested on: production of prostaglandin E2 (PGE2); experiment: Production of prostaglandin E2 (PGE2) in cultures of mouse peritoneal cells stimulated with LPS (ELISA kit); format: cell-based, mice; settings: Table 3B, 6 h
In short: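 C57BL/6 mouse peritoneal cells (3×10^6/mL) stimulated with LPS (10 ng/mL). PGE2 measured by ELISA.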

[2] = tested on: production of nitric oxide (NO); experiment: Production of nitric oxide (NO) in cultures of mouse peritoneal cells stimulated with IFN-γ plus LPS (Griess reagent); format: cell-based, mice; settings: Table 3B; substance 50 μmol·l^−1; IFN-g plus LPS; 24 h
In short: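 C57BL/6 mouse peritoneal cells (2×10^6/mL) stimulated with IFN-γ (5000 pg/mL) plus LPS (100 pg/mL), compounds at 50 μmol·l^−1. Nitrite measured by Griess reagent after 24 h, expressed as % of stimulated control (set 100%); IC50 is concentration reducing NO by 50%.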

Production of prostaglandins IC50 (μmol · 1^−1) average value and range of values [1]	Compound	Cell viabilities in % of the controls (peritoneal cells of mice)	Production of nitric oxide in % of the controls [2]
71.89 ± 0.36; n = 2 μmol · 1^−1	CCCCc1c(-c2cccnc2)nc(N)nc1-c1cc2ccccc2o1 [Substance 119]	76.10 ± 6.23; n = 8 % of the controls	70.13 ± 10.10; n = 6 % of the controls
83.44 ± 11.03; n = 2 μmol · 1^−1	CCCCc1c(-c2ccncc2)nc(N)nc1-c1cc2ccccc2o1 [Substance 120]	92.51 ± 2.77; n = 4 % of the controls	65.32 ± 3.72; n = 4 % of the controls
62.54 ± 21.79; n = 6 μmol · 1^−1	CCCCc1c(-c2cc3ccccc3o2)nc(N)nc1-c1cccs1 [Substance 121]	90.22 ± 7.99; n = 12 % of the controls	55.17 ± 7.88; n = 10 % of the controls
68.47 ± 8.71; n = 2 μmol · 1^−1	CCCCc1c(-c2ccco2)nc(N)nc1-c1cc2ccccc2o1 [Substance 122]	81.66 ± 4.41; n = 8 % of the controls	35.04 ± 5.71; n = 6 % of the controls
35.10 ± 14.56; n = 4 μmol · 1^−1	CCCCc1c(-c2ccoc2)nc(N)nc1-c1cc2ccccc2o1 [Substance 123]	42.62 ± 11.49; n = 12 % of the controls	11.15 ± 2.99; n = 6 % of the controls
62.48 ± 5.45; n = 2 μmol · 1^−1	CCCCc1c(-c2ccsc2)nc(N)nc1-c1cc2ccccc2o1 [Substance 124]	94.41 ± 9.01; n = 8 % of the controls	33.45 ± 13.04; n = 6 % of the controls
73.07 ± 1.91; n = 2 μmol · 1^−1	CCCCc1c(-c2cc3ccccc3o2)nc(N)nc1-c1cc2ccccc2o1 [Substance 125]	76.82 ± 8.89; n = 8 % of the controls	67.76 ± 6.80; n = 6 % of the controls
87.25 ± 13.99; n = 2 μmol · 1^−1	CCCCc1c(Cl)nc(N)nc1-c1cc2ccccc2o1 [Substance 126]	102.56 ± 5.92; n = 4 % of the controls	78.18 ± 9.03; n = 4 % of the controls
38.26 ± 14.52; n = 8 μmol · 1^−1	CCCCc1c(-c2ccccn2)nc(N)nc1-c1cc2ccccc2s1 [Substance 127]	130.66 ± 2.87; n = 8 % of the controls	40.88 ± 6.83; n = 4 % of the controls
31.10 ± 10.43; n = 4 μmol · 1^−1	CCCCc1c(-c2cccnc2)nc(N)nc1-c1cc2ccccc2s1 [Substance 128]	79.62 ± 4.12; n = 8 % of the controls	64.91 ± 6.60 n = 4 % of the controls
65.97 ± 25.34; n = 2 μmol · 1^−1	CCCCc1c(-c2ccncc2)nc(N)nc1-c1cc2ccccc2s1 [Substance 129]	85.12 ± 0.76; n = 8 % of the controls	63.94 ± 1.84 n = 4 % of the controls
56.31 ± 19.61; n = 8 μmol · 1^−1	CCCCc1c(-c2cccs2)nc(N)nc1-c1cc2ccccc2s1 [Substance 130]	130.68 ± 8.17; n = 12 % of the controls	43.43 ± 7.18; n = 10 % of the controls
83.56 ± 5.83; n = 4 μmol · 1^−1	CCCCc1c(-c2ccco2)nc(N)nc1-c1cc2ccccc2s1 [Substance 131]	98.88 ± 1.65; n = 8 % of the controls	49.76 ± 4.85; n = 4 % of the controls
20.76 ± 9.35; n = 4 μmol · 1^−1	CCCCc1c(Cl)nc(N)nc1-c1cc2ccccc2s1 [Substance 132]	84.08 ± 4.71; n = 8 % of the controls	49.61 ± 6.36; n = 4 % of the controls
61.74 ± 17.48; n = 2 μmol · 1^−1	CCCCc1c(-c2ccccc2)nc(N)nc1-c1cccc2ccccc12 [Substance 133]	110.75 ± 3.69; n = 4 % of the controls	49.60 ± 9.26; n = 4 % of the controls
27.85 ± 10.82; n = 8 μmol · 1^−1	CCCCc1c(-c2ccc(OC)cc2)nc(N)nc1-c1cccc2ccccc12 [Substance 134]	93.40 ± 5.59; n = 12 % of the controls	33.09 ± 7.25; n = 8 % of the controls

Production of prostaglandins IC50 (μmol · 1^−1) average value and range of values [1]	Compound	Cell viabilities in % of the controls (peritoneal cells of mice)	Production of nitric oxide in % of the controls [2]
28.69 ± 0.00; n = 2 μmol · 1^−1	CCCCc1c(-c2ccccn2)nc(N)nc1-c1cccc2ccccc12 [Substance 135]	64.97 ± 12.85; n = 8 % of the controls	18.45 ± 5.66; n = 6 % of the controls
72.55 ± 19.06; n = 2 μmol · 1^−1	CCCCc1c(-c2cccnc2)nc(N)nc1-c1cccc2ccccc12 [Substance 136]	111.00 ± 0.97; n = 4 % of the controls	70.28 ± 3.71; n = 4 % of the controls
28.00 ± 9.43; n = 2 μmol · 1^−1	CCCCc1c(-c2ccncc2)nc(N)nc1-c1cccc2ccccc12 [Substance 137]	85.07 ± 1.02; n = 4 % of the controls	58.04 ± 6.68; n = 4 % of the controls
43.57 ± 4.53; n = 2 μmol · 1^−1	CCCCc1c(-c2ccco2)nc(N)nc1-c1cccc2ccccc12 [Substance 138]	93.61 ± 5.46; n = 4 % of the controls	42.92 ± 3.77; n = 4 % of the controls
18.35 ± 3.26; n = 4 μmol · 1^−1	CCCCc1c(-c2ccoc2)nc(N)nc1-c1cccc2ccccc12 [Substance 139]	104.41 ± 10.83; n = 8 % of the controls	70.38 ± 4.95; n = 6 % of the controls
40.66 ± 6.87; n = 2 μmol · 1^−1	CCCCc1c(-c2ccsc2)nc(N)nc1-c1cccc2ccccc12 [Substance 140]	94.34 ± 2.62; n = 4 % of the controls	30.16 ± 2.96; n = 4 % of the controls
34.2 ± 8.01; n = 4 μmol · 1^−1	CCCCc1c(-c2cccc3ccccc23)nc(N)nc1-c1cccc2ccccc12 [Substance 141]	107.73 ± 5.36; n = 8 % of the controls	57.66 ± 6.53; n = 6 % of the controls
9.14 ± 2.71; n = 4 μmol · 1^−1	CCCCc1c(Cl)nc(N)nc1-c1cccc2ccccc12 [Substance 142]	114.07 ± 8.00; n = 8 % of the controls	43.99 ± 6.06; n = 6 % of the controls
85.94 ± 12.69; n = 4 μmol · 1^−1	CCCCc1c(Cl)nc(NC2CC2)nc1Cl [Substance 143]	104.31 ± 8.28; n = 8 % of the controls	78.33 ± 13.82; n = 6 % of the controls
0.20 ± 0.33; n = 4 μmol · 1^−1	CCCCc1c(Cl)nc(NCc2ccco2)nc1Cl [Substance 144]	150.27 ± 4.96; n = 8 % of the controls	83.33 ± 11.72; n = 6 % of the controls
0.28 ± 0.23; n = 4 μmol · 1^−1	CCCCc1c(Cl)nc(NCc2ccccc2)nc1Cl [Substance 145]	147.31 ± 4.88; n = 8 % of the controls	93.01 ± 9.25; n = 6 % of the controls
1.61 ± 0.27; n = 4 μmol · 1^−1	CCCCc1c(Cl)nc(NN)nc1Cl.Cl [Substance 146]	103.28 ± 4.62; n = 8 % of the controls	86.28 ± 9.01; n = 6 % of the controls
80.60 ± 4.63; n = 2 μmol · 1^−1	CCCCc1c(Cl)nc(NC(C)=O)nc1Cl [Substance 147]	113.28 ± 8.99; n = 8 % of the controls	15.32 ± 2.33; n = 6 % of the controls
77.50 ± 16.19; n = 4 μmol · 1^−1	CCCCc1c(Cl)nc(Sc2ccccc2)nc1Cl [Substance 148]	90.49 ± 4.62; n = 12 % of the controls	61.85 ± 10.25; =10 % of the controls
26.35 ± 10.89; n = 4 μmol · 1^−1	CCCCc1c(Cl)nc(S)nc1Cl [Substance 149]	99.14 ± 6.73; n = 8 % of the controls	24.12 ± 11.22; n = 6 % of the controls
